Data set [1] has as its target T1, SARS-CoV-2 M^pro (Severe acute respiratory syndrome coronavirus 2 (2019-nCoV) (SARS-CoV-2), UniProt P0DTD1). Briefly: biochemical.
Data set [2] is described as follows: in vitro. The note with it: African green monkey.
Data set [3] can be described thus: in vitro. The note with it: human, CC50 in Calu-3 cells.
Data set [4] addresses T1, SARS-CoV-2 M^pro. The data set is classed as binding. The following applies: native mass spectrometry, covalent adduct.
The next data set has as its system SARS-CoV-2. Kind of data set: microbe, parasite or virus in culture. The data set is classed as cell-based. The note with it: for EC50: Severe acute respiratory syndrome coronavirus 2, Vero C1008.
The next data set deals with Vero E6 cells. Kind of data set: Cytotoxicity in Vero E6 cells (neutral red uptake). The following applies: read-out: CC50 in Vero E6 cells.
Setting [5] is: read-out: IC50 against SARS-CoV-2 M^pro.
The mark [6] stands for this setting: Vero E6 cells, immunofluorescence assay, read-out: SARS-CoV-2 antiviral assay EC50.
Where [7] appears, read: read-out: SARS-COV-2 antiviral activity using immunofluorescence assay EC50.
The mark [8] stands for this setting: read-out: antiviral EC50 against SARS-CoV-2 in Vero E6 cells.

Values joined by “and” are separate entries in the source; they are usually repeats but may differ in a detail not shown here. Identical values can stand only once. Like-named read-outs stand apart in the source and are kept apart here.

In general, IC50 refers to the concentration that inhibits the measured activity by half. The term CC50 denotes the concentration at which the toxic effect on the cells reaches its halfway point. For `C[C@H](NC(=O)[C@@H](c1cccnc1)N(C(=O)CCl)c1ccc(-n2cccc2)cc1)c1ccccc1` [Jun9-57-3R, N-(4-(1H-pyrrol-1-yl)phenyl)-2-chloro-N-((R)-2-oxo-2-(((S)-1-phenylethyl)amino)-1-(pyridin-3-yl)ethyl)acetamide], the IC50 on SARS-CoV-2 M^pro [1] (setting [5]) is 50 nM. Further, the CC50 at 5 days in the data set “in vitro [2]” (CC50 in Vero E6 cells) is below 11 µM; in “in vitro [3]”, below 2000 nM.
Regarding `O=C(NC1CCCCC1)C(c1cccnc1)N(C(=O)CCl)c1ccc(-c2ccccc2)cc1` (stereo not drawn) [Jun9-55-2, N-([1,1′-biphenyl]-4-yl)-2-chloro-N-(2-(cyclohexylamino)-2-oxo-1-(pyridin-3-yl)ethyl)acetamide], the CC50 at 5 days is below 11 µM in the data set “in vitro [2]” (CC50 in Vero E6 cells) and below 2000 nM in “in vitro [3]”.
For `O=C(NC1CC1)C(c1cccnc1)N(C(=O)CCl)c1ccc(-c2ccccc2)cc1` (stereo not drawn) [Jun9-57-2, N-([1,1′-biphenyl]-4-yl)-2-chloro-N-(2-(cyclopropylamino)-2-oxo-1-(pyridin-3-yl)ethyl)acetamide] the same measures were below 11 µM and below 2000 nM.
In turn, `C[C@H](NC(=O)[C@@H](c1cccnc1)N(C(=O)C(Br)Br)c1ccc(-c2ccccc2)cc1)c1ccccc1` [Jun9-89-2R] had a half-maximal inhibitory concentration (IC50) at SARS-CoV-2 M^pro [1] (IC50 against SARS-CoV-2 M^pro) of 80 nM. The “mass modification (mass shift) of M^pro adduct” value at SARS-CoV-2 M^pro [4] is listed as 526 Da. Moreover, the CC50 at 5 days in “in vitro [2]” (CC50 in Vero E6 cells) was found to be 8.94 µM.
On to `C[C@H](NC(=O)C(c1cnccn1)N(C(=O)CCl)c1ccc(-c2ccccc2)cc1)c1ccccc1` (stereo partly drawn) [Jun9-59-1, 2-(N-{[1,1′-biphenyl]-4-yl}-2-chioroacetamido)-N-[(1S)-1-phenylethyl]-2-(pyrazin-2-yl)acetamide], for which the results for the CC50 at 5 days in the data set “in vitro [2]” (CC50 in Vero E6 cells) and in the data set “in vitro [3]” were below 11 µM and below 2000 nM, respectively.
Consider `C[C@H](NC(=O)[C@@H](c1cccnc1)N(C(=O)C(Cl)(Br)Br)c1ccc(-c2ccccc2)cc1)c1ccccc1` [Jun9-89-4R, N-([1,1′-biphenyl]-4-yl)-2,2-dibromo-2-chloro-N-((R)-2-oxo-2-(((S)-1-phenylethyl)amino)-1-(pyridin-3-yl)ethyl)acetamide], for which the IC50 at SARS-CoV-2 M^pro [1] (setting [5]) amounted to 50 nM. In addition, at SARS-CoV-2 M^pro [4], the “mass modification (mass shift) of M^pro adduct” value was 481 Da and 561 Da. In the data set “in vitro [2]” (CC50 in Vero E6 cells), the midpoint of cytotoxicity, the CC50 at 5 days, lay at 8.41 µM.
Regarding `C[C@H](NC(=O)[C@H](c1cccnc1)N(C(=O)CCl)c1ccc(-n2cccc2)cc1)c1ccccc1` (stereo in doubt) [Jun9-57-3S], the IC50 on SARS-CoV-2 M^pro [1] (setting [5]) came out at 1130 nM. For the same molecule, the CC50 at 5 days in the data set “in vitro [2]” (CC50 in Vero E6 cells) was below 11 µM; in the data set “in vitro [3]”, below 2000 nM.
What is called EC50 is the concentration needed to bring the measured effect to its halfway point. Take `C[C@H](NC(=O)C(c1cnccn1)N(C(=O)c1c[nH]cn1)c1ccc(-c2ccccc2)cc1)c1ccccc1` (stereo partly drawn) [Jun9-5-2]: the IC50 at SARS-CoV-2 M^pro [1] (setting [5]) was 670 ± 150 nM. In addition, the “Selectivity index SI CC50/EC50” value in the data set with SARS-CoV-2 was 32.6. Besides, the EC50 with SARS-CoV-2 (setting [6]) was 4540 ± 690 nM; in the data set on SARS-CoV-2 (setting [7]), 9890 nM; in the data set on SARS-CoV-2 (setting [8]) it was 820 to 4540 nM. In “in vitro [2]” (Vero E6 Cytotoxicity CC50 (μM)), the midpoint of cytotoxicity, the CC50 at 5 days, lay at 148 ± 13.9 µM. For the same molecule, in the data set with Vero E6 cells, the CC50 is above 100000 nM.
Regarding `C[C@H](NC(=O)C(c1cccnc1)N(C(=O)c1ccco1)c1ccc(-n2cccc2)cc1)c1ccccc1` (stereo partly drawn) [Jun8-76-5], the IC50 against SARS-CoV-2 M^pro [1] (IC50 against SARS-CoV-2 M^pro) is below 3000 nM; on SARS-CoV-2 M^pro [1] (read-out: SARS-COV-2 main protease enzymatic inhibition IC50), 940 nM; at SARS-CoV-2 M^pro [1] (read-out: SARS-CoV-2 M^pro IC50) it was 940 ± 330 nM. Also, the “Selectivity index SI CC50/EC50” value in the data set on SARS-CoV-2 is recorded as above 115.6. The EC50 in the data set with SARS-CoV-2 (setting [6]) was 1730 ± 190 nM; in the data set with SARS-CoV-2 (setting [7]) it was 1900 nM; with SARS-CoV-2 (setting [8]), 820 to 4540 nM. The CC50 at 5 days in the data set “in vitro [2]” (Vero E6 Cytotoxicity CC50 (μM)) was above 200 µM. In addition, in the data set on Vero E6 cells, the CC50 was above 100000 nM.
For the molecule `O=C(NC1CCCC1)C(c1cccnc1)N(C(=O)CCl)c1ccc(-c2ccccc2)cc1` (stereo not drawn) [Jun9-55-1, 2-(N-{[1,1′-biphenyl]-4-yl}-2-chloroacetamido)-N-cyclopentyl-2-(pyridin-3-yl)acetamide], the values for the CC50 at 5 days in “in vitro [2]” (CC50 in Vero E6 cells) and in “in vitro [3]” were below 11 µM and below 2000 nM, respectively.
Consider `CC#CC(=O)N(c1ccc(-c2ccccc2)cc1)C(C(=O)N[C@@H](C)c1ccccc1)c1cccnc1` (stereo partly drawn) [Jun9-62-1, N-([1,1′-hiphenyl]-4-yl)-N-(2-oxo-2-(((S)-1-phenylethyl)amino)-1-(pyridin-3-yl)ethyl)but-2-ynamide], for which the IC50 at SARS-CoV-2 M^pro [1] (setting [5]) was 1150 nM. Moreover, the CC50 at 5 days in “in vitro [2]” (CC50 in Vero E6 cells) amounted to 18 µM; in the data set “in vitro [3]” it was 47800 nM.

(Values after patent publication US20240083885A1, “COMPOSITIONS AND METHODS FOR INHIBITING M PRO PROTEASE ACTIVITY AND FOR PREVENTING AND TREATING SARS-COV-2 INFECTION” (priority 2020, published 2024).)
